From patent US5587463A, “Texaphyrin macrocycles and metal complexes thereof” (Board of Regents, The University of Texas System, priority 1994, dated 1996)
Like-named read-outs stand apart in the source and are kept apart here. One block for each molecule: values may come before it.

Key:
[1] = Axial base binding of benzimidazole, 1H NMR spectral titration; conditions: for conversion to six coordinate form (4bA): ca. 5×10^-3 M
Source text: (§1) For a rigorously five coordinate starting cadmium complex, such as that represented schematically by structure 3A, where neither the counter anion nor adventitious ligands serves to occupy an apical coordination site, base binding can be considered to occur in accord with equations (1) and (2) shown below. Under conditions where K1 […]K2, these processes can be considered to occur sequentially, giving first a monoligated, presumably pentagonal pyramidal six coordinate species (such as 4bA), followed by a coordinatively saturated bisligated pentagonal bipyramidal product akin to 5aA. Where, however, K2 >>K1this stepwise conceptual approach is invalid. Under these conditions, it becomes easier to analyze the base binding in terms of direct formation of the bisligated material as shown in equation (3).
(§2) L+B LB K1 =[LB]/[L][B] (1)
(§3) LB+B LB2 K2 =[LB2 ]/[LB][B] (2)
(§4) L+2B LB2 K1 K2 =[LB2 ]/[L][B]^2 (3)
(§5) The ^1 H NMR titration of 3A .cndot.NO3 with BzIm or pyr-D5 was done. Rigorously purified complex 3A .cndot.NO3 was dried at 80° C. under reduced pressure (1 mmHg) for 1 day. Starting samples for titration were then prepared by dissolving this five coordinate complex (3.32 mg, 0.005 mmol) in 0.7 to 0.75 ml of CDCl3 and transferring quantitatively to an NMR tube. To such samples were then added increasing aliquots of either BzIm or pyr-D5 (as solutions of known concentration in CDCl3) and recording the chemical shift of the "meso" protons at 27^Q C. Control experiments were also carried out by adding known quantities of CF3 CO2 H, D2 O, and NH4 NO3 to similar stock solutions of 3.cndot.NO3.
Determination of Binding Constants. […] The chemical shift data obtained for the "meso" signals as a function of added BzIm were thus analyzed as such at both very low and very high conversion: Standard Scatchard (single reciprocal) plots^38 were constructed by plotting (δ-δo)/[BzIm] vs (δ-δo) according to equation 4 (which corresponds to eq. 5.13 of ref. 38), obtaining K as the absolute value of the slope and the term (δ.infin. -δo)K as the intercept.
(δ-δo)/[BzIm]=-K(δ-δo)+(δ.infi
Here δ is the observed chemical shift, δo is the initial chemical shift of the pure five or six coordinate starting complex (3A .cndot.NO3 or 4bA --NO3), δ.infin. the chemical shift calculated for the final mono- or bisligated complexes 4bA .cndot.NO3 or 5aA .cndot.NO3, K the equilibrium constant in question, and [BzIm] the concentration of free, uncomplexed benzimidazole. […] This was done in a straightforward manner according to the expressions given in equations 5 and 6, where [lig]o represents the concentration of the starting five coordinate ligand 3A .cndot.NO3.
(δ-δo)/δ.infin. -δo) at low
[BzIm].congruent.[BzIm]o -[lig]o at high [BzIm]o (6)
Using these corrected values for [BzIm], straight line Scatchard plots were obtained with R[…]0.99 and 0.98 respectively for the low and high [BzIm]o regimes giving values of K1 and K2 of 1.80×10^4 M^-1 and 12.9 M^-1 respectively.

[2] = Axial base binding of pyridine, 1H NMR spectral titration
Source text: as §1, §2, §3, §4, §5
The changes in "meso" proton chemical shift as a function of added [pyr] shown in FIG. 15 indicate a clear […] of two distinct binding regimes. Moreover as expected, attempts to fit the data as a simple monoligation process (to give 6CN material) according to eq. […] This was done using the convenient iterative procedure outlined by Connors.^38 Here the equations of interest, corresponding to eqs. 4.31 and 4.32 of Connors,^38 as adopted for NMR analyses, are:
[pyr]{Δ12 /(δ-δo)-1}-K1 (7)
(δ-δo) {1+K1 [pyr]+K1 K2 [pyr]^2
where δ is the observed chemical shift, δo is the initial chemical shift of the pure five coordinate starting complex 3.cndot.NO3, All is the total chemical shift difference corresponding to the formation of the pure putative monoligated six coordinate species, Δ12 is the total chemical shift corresponding to the formation of the bisligated cationic species 5a from the initial five coordinate material, and [pyr] is the free pyridine concentration. A precise expression for [pyr] is given by equation 9,^38 where [pyr]o is the concentration total added pyridine, and [lig]o represents the concentration of the starting five coordinate ligand 3A .cndot.NO3.
[pyr]o =[pyr]+[lig]o (K1 [pyr]+2K1 K2
[pyr]^2)/(1+K1 [pyr]+K1 K2 [pyr]^2)(9)
Initial iterative solutions of eqs. 7 (plotting 1/[pyr]-K1 Δ11 /(δ-δo) vs. [pyr]{Δ12 /δ-δo)-1}, giving K1 K2 and -K1 as the slope and intercept respectively) and 8 (plotting (δ-δo) {1+K1 [pyr]+K1 K2 [pyr]^2 }/[pyr] vs. [pyr], giving K1 K2 Δ12 and K1 Δ11 as the slope and intercept respectively) were therefore made using this greatly simplifying assumption. They converged quickly to give initial, uncorrected values of K1 =1.5M^-1 and K1 K2 =308M^-2. […]

[3] = Stability to demetallation (sulfide, thiosulfate); assay type: physicochemical; conditions: for demetallation by sulfide: aqueous Na2 S / excess sulfide anion
Source text: The above K1 and K2 (or K1 K2) values are predicated on the assumption that the cadmium complexes under discussion are stable with regards to demetallation and that the equilibria of equations 1 and 2 (or 3) pertain under the conditions of base binding. The first of these concerns is readily apparent: If demetallation occurs, then obviously one is not studying base binding! […] The second concern is particularly important within the context of quantitative work: If, for instance, the starting complex 3.cndot.NO3 is not rigorously five coordinate, then K1 (and perhaps K2 as well) would represent an axial ligand displacement reaction rather than a pure addition process as implied above. Control experiments indicate that the assumption of initial five coordination is reasonable: Independent titrations of 3A .cndot.NO3 with NH4 NO3 and H2 O indicate that only modest and monotonic changes in the chemical shift of the "meso" signals take place over the course of adding ≥50 equivalents of these potentially adventitious ligands.^40 This means that either "complete" binding occurs at 1:1 stoichiometry (essentially ruled out in the case of H2 O on the basis of analytical data), or that these species are poorly coordinating in CHCl3 so that five coordination pertains about cadmium; the latter interpretation appearing more likely.
(§6) Attempts to demetallate complex 3A .cndot.NO3 were made. In an effort to obtain the free sp^2 bridged ligand 2A, the above complex in chloroform was stirred for several hours in the presence of sodium sulfide and independently with sodium thiosulfate. […] In the case of sodium sulfide, this critical conclusion was further supported by FAB MS: Other than the starting cationic complex 3A, no evidence was obtained for any moderate to high molecular weight volatile products in the mass spectrum. […] The rate of this process, however, is strongly pH dependent, the half-life being, for instance, on the order of several hours in the presence of ca. 0.1N HCl.

[4] = Hydrolysis in aqueous acid; assay type: physicochemical
Source text: as §6

[5] = Optical and photophysical properties of metallotexaphyrins (laser flash photolysis, fluorescence, singlet oxygen luminescence); assay type: physicochemical; set-up: tt (triplet lifetime): unit not given here; conditions: CH3 OH; for Absorption gmax (Soret-type band): first value (Soret); for Absorption gmax (Q-type band): second value (Q-type); for D^1 O2 (singlet oxygen quantum yield) / Df (fluorescence quantum yield): ±10%
Source text: Finally, several complexes containing paramagnetic metal ions (e.g. Mn^II, Sm^III, and Eu^III, structures 5c -7c) were investigated.
Comparison of the initial intensity with that obtained using tetrakis (4-hydroxyphenyl)porphyrin (THPP) as photosensitizer^3b under identical conditions allowed calculation of the quantum yields for production of singlet oxygen (^.phi. 1.cndot.2).

[6] = set-up: tt (triplet lifetime): unit not given here; conditions: benzene, see reference 4, cited from earlier work
[7] = 1:1 methanol/water

Compound: CCC1=C(C)C2=[N+]3C1=Cc1c(CC)c(CC)c4[n]1[Cd-3]315[N+](=C2)c2ccccc2[N+]1=CC1=[N+]5C(=C4)C(CC)=C1C.O=[N+]([O-])[O-] [3A .cndot.NO3]
- conversion to six coordinate form (4bA) ([1]; 0.2 molar equivalents of BzIm): roughly 20%
- conversion to six coordinate form (4bA) ([1]; 1.0 molar equivalent of BzIm): 90%
- K1 K2 (benzimidazole) ([1]; CDCl3, iterative approach): 1.9×10^5 M^-2
- Kd ([1]; CDCl3, iterative approach, read-out: K1 (benzimidazole) (converted)): 50 µM
- Kd ([1]; CDCl3, very high conversion, read-out: K2 (benzimidazole) (converted)): 76900 µM
- Kd ([1]; CDCl3, very low conversion, read-out: K1 (benzimidazole) (converted)): 55.6 µM
- conversion to pentagonal bipyramidal product (5aA) ([2]; 3 equivalents of pyridine): ca. 5%
- conversion to pentagonal bipyramidal product (5aA) ([2]; 10 equivalents of pyridine): roughly 35%
- K1 K2 (pyridine) ([2]; CDCl3, final values, estimated error ≤10%): 315 M^-2
- K1 K2 (pyridine) ([2]; CDCl3, final values, estimated error ≤10%, listed as 3A.cndot.NO3): 315±30 M^-2
- K1 K2 (pyridine) ([2]; initial, uncorrected): 308 M^-2
- demetallation by sulfide [3]: little or no demetallation occurs
- changes in optical properties on treatment with sodium sulfide or sodium thiosulfate ([3]; chloroform, several hours): No significant changes in optical properties were observed
- hydrolysis in aqueous acid [4]: appears to undergo hydrolysis (at the imine residues) and hence demetallation
- half-life for hydrolysis/demetallation ([4]; ca. 0.1N HCl): several hours

Compound: CCC1=C(C)c2cnc3ccc(Cl)cc3ncc3nc(cc4[n-]c(cc1n2)c(CC)c4CC)C(CC)=C3C.O=[N+]([O-])[O-].[Cd+2] [4C NO3]
- Emission gmax [5]: 788 nm
- S (= phi 1O2 / phi t) [5]: 0.76
- tt (triplet lifetime) ([5]; deoxygenated): 36
- Absorption gmax (Soret-type band) [5]: 421 nm
- Absorption gmax (Q-type band) [5]: 760 nm
- Dt (triplet quantum yield) ([5]; ±5%): 0.97
- D^1 O2 (singlet oxygen quantum yield) [5]: 0.74
- Df (fluorescence quantum yield) [5]: 0.009

Compound: CCC1=C(C)c2cnc3ccccc3ncc3nc(cc4[n-]c(cc1n2)c(CC)c4CC)C(CC)=C3C.[Cd+2].c1ccc2[nH]cnc2c1 [4bA]
- conversion to bisligated seven coordinate form (5bA) ([1]; 10 molar equivalents of BzIm): 35%

Compound: CCC1=C(C)c2cnc3ccccc3ncc3nc(cc4[n-]c(cc1n2)c(CC)c4CC)C(CC)=C3C.[Mn+2].[OH-] [5C OH]
- Absorption gmax (Soret-type band) [5]: 420 nm
- Absorption gmax (Q-type band) [5]: 760 nm
- D^1 O2 (singlet oxygen quantum yield) [5]: < 0.05
- Df (fluorescence quantum yield) [5]: < 0.001

- Absorption gmax (Soret-type band) [5]: 450 nm
- Absorption gmax (Q-type band) [5]: 763 nm
- D^1 O2 (singlet oxygen quantum yield) [5]: < 0.05
- Df (fluorescence quantum yield) [5]: < 0.001
Compound: CCC1=C(C)c2cnc3cc(C)c(C)cc3ncc3nc(cc4[n-]c(cc1n2)c(CC)c4CC)C(CC)=C3C.[OH-].[OH-].[Sm+3] [6C (OH)2]

- Absorption gmax (Soret-type band) [5]: 451 nm
- Absorption gmax (Q-type band) [5]: 762 nm
- D^1 O2 (singlet oxygen quantum yield) [5]: < 0.05
- Df (fluorescence quantum yield) [5]: < 0.001
Compound: CCC1=C(C)c2cnc3cc(C)c(C)cc3ncc3nc(cc4[n-]c(cc1n2)c(CC)c4CC)C(CC)=C3C.[Eu+3].[OH-].[OH-] [7C (OH)2]

Compound: C1=Cc2nc1c(-c1ccccc1)c1ccc([nH]1)c(-c1ccccc1)c1nc(c(-c3ccccc3)c3ccc([nH]3)c2-c2ccccc2)C=C1.[Cd].c1ccncc1 [CdTPP(pyr), reference compound]
- demetallation by sulfide [3]: leads to cation loss and precipitation of CdS

Compound: CCCCCC[Si](CCCCCC)(CCCCCC)O[Si]1(O[Si](CCCCCC)(CCCCCC)CCCCCC)n2c3c4cc5ccccc5cc4c2N=C2N=C(N=c4c5cc6ccccc6cc5c(n41)=NC1=NC(=N3)c3cc4ccccc4cc31)c1cc3ccccc3cc12 [SiNC, bis(trin-hexylsiloxy)(2,3-naphthalocyaninato) silicon]
- Absorption gmax (first value) [6]: 310 nm
- Absorption gmax (second value) [6]: 776 nm
- Emission gmax [6]: 780 nm
- S (= phi 1O2 / phi t) [6]: 0.90
- tt (triplet lifetime) [6]: 331
- Dt (triplet quantum yield) ([6]; ±5%): 0.39
- D^1 O2 (singlet oxygen quantum yield) ([6]; ±10%): 0.35

Compound: CCC1=C(C)c2cnc3ccccc3ncc3nc(cc4[n-]c(cc1n2)c(CC)c4CC)C(CC)=C3C.[Y+3] [Y^3+ complex of texaphyrin]
- half-lives for decomplexation and/or ligand decomposition [7]: exceed 3 weeks

Compound: CCC1=C(C)c2cnc3ccccc3ncc3nc(cc4[n-]c(cc1n2)c(CC)c4CC)C(CC)=C3C.[Cd+2].c1ccncc1.c1ccncc1 [complex 4]
- demetallation by sulfide [3]: no demetallation takes place
- stability relative to cadmium porphyrins ([3]; neutral conditions / base binding controls): more stable than cadmium porphyrins
- hydrolysis in aqueous acid [4]: leads to hydrolysis of the macrocyle
